This assay concerns M. furfur. Put plainly: Antimicrobial activity (MIC) micromethod in microplates on microorganisms responsible for dandruff. The note with it: Sabouraud medium with 10% olive oil, 24 to 48 hours at 32.5° C., OD 620 nm vs control without peptide, peptide tested at 0.1%, 0.25%, 0.5% and 1%. The class given is cell-based. As to the method: The antimicrobial activity of the peptides used according to the invention may be evaluated by measuring their minimum inhibitory concentration (MIC). Decreasing concentrations of peptides are contacted with standardised inoculum of microorganisms in a culture medium suitable for growth of said microorganisms in exponential growth phase. After incubation at the suitable temperature for the microorganism, the growth is evaluated by an OD (620 nm) measurement. […] The MIC obtained may be compared with the same measurement performed only with solvent (without the peptide) or with a compound of known antibiotic activity. This test may also be used to test the selectivity of the peptides used. This method can be used to determine the effect of the test peptide on a beneficial microorganism of the microbial flora of the scalp such as Staphylococcus epidermidis. Peptides that give on the strains responsible for desquamative disorders of the hair and/or the scalp (e.g., M. furfur) better inhibition than on the beneficial strains (e.g., S. epidermidis) will be selected.
The test has been carried using a micromethod in microplates. […]
After incubation of the microplate from 24 to 48 hours at 32.5° C., optical density at 620 nm has been measured. […]

Consider two substances from patent US9265709B2, “Use of peptides as antidandruff agents” (L'OREAL, priority 2009, dated 2016).

Ends that are not written are not given here.

The substance “GLWSTIKNVGKEAAIAAGKAALGAL-NH2 (listed as Phyllomedusa hypochondrialis) [DPh-1]” gave an MIC of under 0.1%.

In turn, “FLSLIPHAINAVSAIAKHF-NH2 (listed as Phyllomedusa azurea) [PS-7]” came in with an MIC of under 0.1%.
